Source: US8853207B2 (Development Center for Biotechnology, priority 2012, dated 2014)
Counter-ions that a name gives are not always drawn.

Target: FLT3 kinase (FLT3 kinase domain alone, Upstate) (Homo sapiens (Human), UniProt P36888)
Test: FLT3 kinase assay ([33P] incorporation into substrate)
Format: biochemical
Conditions: 100 μM ATP, 30° C., 30 minutes; read-out: IC50 against FLT3
Description: Inhibition of FLT3 kinase activity by compounds disclosed herein was quantified by measuring the amount of [^33P] incorporated into the substrate in the presence of a test compound. Briefly, a reaction mixture of 25 μL final volume containing 5 ng of FLT3 kinase (FLT3 kinase domain alone, Upstate), 5 μg of the substrate [(Poly (Glu-Tyr, 4:1), Sigma], kinase reaction buffer (20 mM MOPS pH 7.0, 1 mM EDTA, 5% glycerol, 0.01% Brij-35, 0.1% β-mercaptoethanol, 1 mg/mL BSA, 100 μM ATP, 0.1 μCi per well [^33P]-γ-ATP (2,500-3,000 Ci/mmol)), and a test compound (diluted from 9 μM to the desired final concentration by 4% DMSO) or DMSO (as the control) was incubated at 30° C. for 30 minutes. The reaction was stopped by adding 5 μL of 3% phosphoric acid solution. The resultant solution (30 μL) was later harvested by a UniFilter Plate GF/B (PerkinElmer) followed by adding 30 μL of the scintillation cocktail (MicroScint 20, PerkinElmer) to the well. The radioactivity retained on the filter membrane was measured by a luminescence counter (PerkinElmer). The results were analyzed by using linear regression software (GraphPad Prism 4; GraphPad Software Inc.).

Sequence of FLT3 kinase (FLT3 kinase domain alone, Upstate) (P36888 610-943): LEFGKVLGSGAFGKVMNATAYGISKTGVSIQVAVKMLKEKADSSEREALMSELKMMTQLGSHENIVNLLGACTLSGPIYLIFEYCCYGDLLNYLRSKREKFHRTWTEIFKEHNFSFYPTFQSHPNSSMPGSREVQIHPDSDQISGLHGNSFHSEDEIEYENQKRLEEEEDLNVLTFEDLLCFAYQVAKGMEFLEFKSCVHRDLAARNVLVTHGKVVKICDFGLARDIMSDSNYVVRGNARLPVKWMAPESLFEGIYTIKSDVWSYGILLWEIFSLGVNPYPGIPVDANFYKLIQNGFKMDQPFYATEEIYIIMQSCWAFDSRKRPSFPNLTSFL

Row | IC50 | SMILES
1 | < 100 nM | c1cc2c(s1)Cc1c(-c3ccc(N4CCOCC4)cc3)n[nH]c1-2 [Example-85, 6-(4-Morpholin-4-yl-phenyl)-4,7-dihydro-1-thia-4,5-diaza-cyclopenta[a]pentalene]
2 | 100 to 499 nM | Fc1ccc(-c2n[nH]c3c2Cc2sccc2-3)cc1 [Example-40, 6-(4-Fluoro-phenyl)-4,7-dihydro-1-thia-4,5-diaza-cyclopenta[a]pentalene]
3 | 500 to 1000 nM | Clc1ccc(Nc2n[nH]c3c2Cc2sccc2-3)c(Cl)c1 [Example-21, (2,4-Dichloro-phenyl)-(4,7-dihydro-1-thia-4,5-diaza-cyclopenta[a]pentalen-6-yl)-amine]
4 | > 1000 nM | FC(F)(F)c1ccc(-c2ccc(-c3n[nH]c4c3Cc3sccc3-4)cc2)cc1 [Example-19, 6-(4′-Trifluoromethyl-biphenyl-4-yl)-4,7-dihydro-1-thia-4,5-diaza-cyclopenta[a]pentalene]
5 | < 100 nM | c1cncc(Nc2ccc(-c3n[nH]c4c3Cc3sccc3-4)cc2)c1 [Example-63, [4-(4,7-Dihydro-1-thia-4,5-diaza-cyclopenta[a]pentalen-6-yl)-phenyl]-pyridin-3-yl-amine]
6 | < 100 nM | COc1ccc(-c2ccc(-c3n[nH]c4c3Cc3sccc3-4)cc2)cc1OC [Example-14, 6-(3′,4′-Dimethoxy-biphenyl-4-yl)-4,7-dihydro-1-thia-4,5-diaza-cyclopenta[a]pent alene]
7 | < 100 nM | COc1ccc(-c2n[nH]c3c2Cc2sc(-c4ccc(F)cc4)cc2-3)cc1 [Example-71, 2-(4-Fluoro-phenyl)-6-(4-methoxy-phenyl)-4,7-dihydro-1-thia-4,5-diaza-cyclopenta[a]pentalene]
8 | 100 to 499 nM | Clc1ccccc1Nc1n[nH]c2c1Cc1sccc1-2 [Example-31, (2-Chloro-phenyl)-(4,7-dihydro-1-thia-4,5-diaza-cyclopenta[a]pentalen-6-yl)-amine]
9 | < 100 nM | Fc1cccc(Nc2ccc(-c3n[nH]c4c3Cc3sccc3-4)cc2)c1 [Example-37, [4-(4,7-Dihydro-1-thia-4,5-diaza-cyclopenta[a]pentalen-6-yl)-phenyl]-(3-fluoro-phenyl)-amine]
10 | < 100 nM | FC(F)(F)c1cccc(Nc2n[nH]c3c2Cc2sccc2-3)c1 [Example-29, (4,7-Dihydro-1-thia-4,5-diaza-cyclopenta[a]pentalen-6-yl)-(3-trifluoromethyl-phenyl)-amine]
11 | < 100 nM | COc1cc(-c2ccc(-c3n[nH]c4c3Cc3sccc3-4)cc2)ccc1O [Example-9, 4′-(4,7-Dihydro-1-thia-4,5-diaza-cyclopenta[a]pentalen-6-yl)-3-methoxy-biphenyl-4-ol]
12 | < 100 nM | COc1ccc(-c2n[nH]c3c2Cc2sc(-c4ccoc4)cc2-3)cc1 [Example-77, 2-Furan-3-yl-6-(4-methoxy-phenyl)-4,7-dihydro-1-thia-4,5-diaza-cyclopenta[a]pentalene]
13 | 100 to 499 nM | c1ccc(-c2n[nH]c3c2Cc2sccc2-3)cc1 [Example-6, 6-Phenyl-4,7-dihydro-1-thia-4,5-diaza-cyclopenta[a]pentalene]
14 | 500 to 1000 nM | FC(F)(F)Oc1ccc(Nc2n[nH]c3c2Cc2sccc2-3)cc1 [Example-46, (4,7-Dihydro-1-thia-4,5-diaza-cyclopenta[a]pentalen-6-yl)-(4-trifluoromethoxy-phenyl)-amine]
15 | < 100 nM | COc1ccc(-c2n[nH]c3c2Cc2sc(-c4ccc(OC)c(F)c4)cc2-3)cc1 [Example-83, 2-(3-Fluoro-4-methoxy-phenyl)-6-(4-methoxy-phenyl)-4,7-dihydro-1-thia-4,5-diaza-cyclopenta[a]pentalene]
16 | < 100 nM | COc1ccc(-c2n[nH]c3c2Cc2sc(-c4ccccc4)cc2-3)cc1 [Example-65, 6-(4-Methoxy-phenyl)-2-phenyl-4,7-dihydro-1-thia-4,5-diaza-cyclopenta[a]pentalene]
17 | < 100 nM | COc1ccc(-c2n[nH]c3c2Cc2sc(-c4ccc(O)c(OC)c4)cc2-3)cc1 [Example-75, 2-Methoxy-4-[6-(4-methoxy-phenyl)-4,7-dihydro-1-thia-4,5-diaza-cyclopenta[a]pentalen-2-yl]-phenol]
18 | < 100 nM | COc1ccc(-c2n[nH]c3c2Cc2sccc2-3)c(OC)c1 [Example-4, 6-(2,4-Dimethoxy-phenyl)-4,7-dihydro-1-thia-4,5-diaza-cyclopenta[a]pentalene]
19 | < 100 nM | Nc1ccc(-c2n[nH]c3c2C(=O)c2sccc2-3)cc1 [Example-56, 6-(4-Amino-phenyl)-4H-1-thia-4,5-diaza-cyclopenta[a]pentalen-7-one]
20 | < 100 nM | c1cc(Nc2ccc(-c3n[nH]c4c3Cc3sccc3-4)cc2)ccn1 [Example-62, [4-(4,7-Dihydro-1-thia-4,5-diaza-cyclopenta[a]pentalen-6-yl)-phenyl]-pyridin-4-yl-amine hydrochloride]

Row | IC50 | SMILES
21 | > 1000 nM | Brc1ccccc1-c1n[nH]c2c1Cc1sccc1-2 [Example-44, 6-(2-Bromo-phenyl)-4,7-dihydro-1-thia-4,5-diaza-cyclopenta[a]pentalene]
22 | > 1000 nM | FC(F)(F)c1cc(-c2n[nH]c3c2Cc2sccc2-3)cc(C(F)(F)F)c1 [Example-43, 6-(3,5-Bis-trifluoromethyl-phenyl)-4,7-dihydro-1-thia-4,5-diaza-cyclopenta[a]pen talene]
23 | < 100 nM | COc1ccc(-c2n[nH]c3c2C(=O)c2sc(-c4ccc(N)nc4)cc2-3)cc1 [Example-87, 2-(6-Amino-pyridin-3-yl)-6-(4-methoxy-phenyl)-4H-1-thia-4,5-diaza-cyclopenta[a]pentalen-7-one]
24 | 100 to 499 nM | Fc1cccc(Nc2n[nH]c3c2Cc2sccc2-3)c1 [Example-30, (4,7-Dihydro-1-thia-4,5-diaza-cyclopenta[a]pentalen-6-yl)-(3-fluoro-phenyl)-amine]
25 | < 100 nM | c1cc(-c2n[nH]c3c2Cc2sccc2-3)ccn1 [Example-60, 6-Pyridin-4-yl-4,7-dihydro-1-thia-4,5-diaza-cyclopenta[a]pentalene]
26 | < 100 nM | Brc1ccc(-c2n[nH]c3c2Cc2sc(Br)cc2-3)cc1 [Example-33, 2-Bromo-6-(4-bromo-phenyl)-4,7-dihydro-1-thia-4,5-diaza-cyclopenta[a]pentalene]
27 | < 100 nM | Brc1ccc(-c2[nH]nc3c2Cc2sccc2-3)cc1 [Example-1, 6-(4-Bromo-phenyl)-5,7-dihydro-1-thia-4,5-diaza-cyclopenta[a]-pentalene]
28 | 100 to 499 nM | Clc1cc(Cl)cc(-c2ccc(-c3n[nH]c4c3Cc3sccc3-4)cc2)c1 [Example-18, 6-(3′,5′-Dichloro-biphenyl-4-yl)-4,7-dihydro-1-thia-4,5-diaza-cyclopenta[a]pentalene]
29 | > 1000 nM | FC(F)(F)Oc1ccccc1Nc1n[nH]c2c1Cc1sccc1-2 [Example-48, (4,7-Dihydro-1-thia-4,5-diaza-cyclopenta[a]pentalen-6-yl)-(2-trifluoromethoxy-phenyl)-amine]
30 | 100 to 499 nM | Clc1cc(Cl)cc(Nc2n[nH]c3c2Cc2sccc2-3)c1 [Example-49, (3,5-Dichloro-phenyl)-(4,7-dihydro-1-thia-4,5-diaza-cyclopenta[a]pentalen-6-yl)-amine]
31 | > 1000 nM | C(=Cc1ccc(-c2n[nH]c3c2Cc2sccc2-3)cc1)c1ccccc1 [Example-12, 6-(4-Styryl-phenyl)-4,7-dihydro-1-thia-4,5-diaza-cyclopenta[a]pentalene]
32 | < 100 nM | COc1ccc(Nc2n[nH]c3c2Cc2sccc2-3)cc1OC [Example-24, (4,7-Dihydro-1-thia-4,5-diaza-cyclopenta[a]pentalen-6-yl)-(3,4-dimethoxy-phenyl)-amine]
33 | > 1000 nM | FC(F)(F)c1ccccc1Nc1n[nH]c2c1Cc1sccc1-2 [Example-42, (4,7-Dihydro-1-thia-4,5-diaza-cyclopenta[a]pentalen-6-yl)-(2-trifluoromethyl-phenyl)-amine]
34 | < 100 nM | Clc1cccc(Nc2[nH]nc3c2Cc2sccc2-3)c1 [Example-25, (3-Chloro-phenyl)-(4,7-dihydro-1-thia-4,5-diaza-cyclopenta[a]pentalen-6-yl)-amine]
35 | < 100 nM | Brc1cccc(-c2n[nH]c3c2Cc2sccc2-3)c1 [Example-47, 6-(3-Bromo-phenyl)-4,7-dihydro-1-thia-4,5-diaza-cyclopenta[a]pentalene]
36 | 100 to 499 nM | Brc1ccc(-c2n[nH]c3c2Cc2sc(Br)cc2-3)cn1 [Example-67, 2-Bromo-6-(6-bromo-pyridin-3-yl)-4,7-dihydro-1-thia-4,5-diaza-cyclopenta[a]pentalene]
37 | 100 to 499 nM | c1ccc(-c2n[nH]c3c2Cc2sccc2-3)nc1 [Example-58, 6-Pyridin-2-yl-4,7-dihydro-1-thia-4,5-diaza-cyclopenta[a]pentalene]
38 | 100 to 499 nM | Ic1ccc(Nc2n[nH]c3c2Cc2sccc2-3)cc1 [Example-22, (4,7-Dihydro-1-thia-4,5-diaza-cyclopenta[a]pentalen-6-yl)-(4-iodo-phenyl)-amine]
39 | 100 to 499 nM | Clc1ccc(Nc2n[nH]c3c2Cc2sccc2-3)cc1Cl [Example-53, (3,4-Dichloro-phenyl)-(4,7-dihydro-1-thia-4,5-diaza-cyclopenta[a]pentalen-6-yl)-amine]
40 | 100 to 499 nM | Brc1ccc(Nc2n[nH]c3c2Cc2sccc2-3)cc1 [Example-20, (4-Bromo-phenyl)-(4,7-dihydro-1-thia-4,5-diaza-cyclopenta[a]pentalen-6-yl)-amine]
